Experimental data from US9206206B2, “Oxidized lipid compounds and uses thereof” (Vascular Biogenics Ltd., priority 2008, dated 2015).
Entries after “also recorded” stand apart in the source; their conditions may differ.

Experiments:
[1] = test system: tyrosine phosphorylation in primary macrophages; assay: Tyrosine phosphorylation assay in primary macrophages (Western blot); assay type: cell-based, mouse
Protocol: (§1) Tyrosine Phosphorylation Assay: Tyrosine phosphorylation in macrophages or bone marrow-derived cells (BMDCs) of mice was assayed. Mouse primary macrophages were isolated from the peritoneum of 7-8 week old C57BL/6 female mice following thioglycollate stimulation. […] Mouse primary bone marrow-derived cells were isolated by flushing bone marrow out of the femur and tibia of female SJL mice using cold RPMI-1640. […] Cells were then washed, resuspended in the same buffer and depleted of B and T cells on a Midi-Macs separation unit through a LD or LS column (Miltenyi Biotech). […] The medium was replaced every other day. […] Proteins with phosphorylated tyrosine were then observed by Western blot, using a monoclonal anti-phosphotyrosine antibody. Western blotting for ERK1/2 or α-tubulin was performed as a control for protein loading.

[2] = test system: C57BL/6 mice; assay: In vivo MOG-induced experimental autoimmune encephalomyelitis (EAE) assay; design: species or system mouse; settings: 4 mg/kg orally, 5 consecutive days starting 5 days before immunization
Protocol: In Vivo Myelin Oligodendrocyte Glycoprotein (MOG)-Induced Experimental Autoimmune Encephalomyelitis (EAE) Assay:
C57BL/6 mice were orally administered with the indicated amount of the tested compound in a final volume of 200 μl for 5 consecutive days starting 5 days before immunization.
For EAE induction, mice were immunized subcutaneously with an emulsion containing 1.5 mg/ml MOG peptide 35-55 ([…]) and 2.5 mg/ml CFA (complete Freund's adjuvant), 100 μl emulsion being injected into each flank. Pertussis toxin (500 ng in 500 μl PBS) was administered intraperitoneally immediately and 48 hours after the immunization.
Onset of EAE was evaluated by a mean clinical score.

[3] = test system: IL12/23 p40 mRNA; assay: In vitro IL12/23 p40 mRNA expression assay; assay type: cell-based, mouse; settings: CD11c+ dendritic cells, 20 μg/ml, 10 μg/ml peptidoglycan, 2-4 hours following administration
Protocol: In Vitro IL12/23 p40 mRNA Expression Assay:
Bone marrow-derived cell cultures were prepared as described hereinabove. On days 5-6 post culturing, the cell cultures were enriched for CD11c+ dendritic cells (>90%) with mouse CD11c microbeads over MS or LS columns (Miltenyi Biotech). CD11c+ dendritic cells were stimulated for 1, 2 and 3 hours with 10 μg/ml peptidoglycan alone or in the presence of 20 μg/ml of the tested compound added 1 hour before activation. RNA was extracted from cells using RNeasy mini kit (Qiagen, Valencia, Calif.). For cDNA preparation, 1 μg of RNA was combined with Oligo dT for 10 minutes at 70° C., 1st strand buffer. Dithiothreitol and dNTP and super-script reverse transcriptase (Invitrogen, Carlsbad, Calif.) were added for 50 minutes at 42° C. and the reaction was ended by incubation for an additional 15 minutes at 70° C. All real time PCR reactions were performed using LightCycler Taqman master (Roche Diagnostics, Mannheim, Germany) and run on the LightCycler machine (Roche). Ready sets of probe with primers were used for IL12/23 p40 and GAPDH assays (Applied Biosystems, assays #Mm01288992_m1 and Mm99999915_g1, respectively) with the latter served to normalize RNA levels. 20 μg/ml CI-201 and phosphatidylcholine (PC) were used as positive and negative controls respectively.

[4] = test system: DBA/1 male mice; assay: In vivo collagen-induced arthritis (CIA) assay; design: species or system mouse
Protocol: In Vivo Collagen-Induced Arthritis (CIA) Assay:
DBA/1 male mice were immunized to induce arthritis by a collagen injection containing complete Freund's adjuvant (CFA) in the base of the tail (day 0) and a booster shot in the flank (day 21). Mice were followed for arthritis development until day 36. Administration by gavage of the tested compound and control substances began on day 22 and was carried out on a daily basis (6 times per week).
Onset of arthritis was evaluated by an arthritis clinical score.

[5] = test system: IL12/23 p40; assay: In vitro IL12/23p40 production assay; assay type: cell-based, mouse; settings: bone marrow-derived cells, compound 1, 2.5, 5, 10 or 20 μg/ml for 1 hour, then 10 μg/ml peptidoglycan 24 hours, ELISA
Protocol: In Vitro IL12/23p40 Production Assay:
Bone marrow derived cells (BMDCs) were obtained from the femur and tibia of female C57BL mice, cultured, and seeded at a concentration of 10^6 cells/ml 5-6 days post-culturing, as described hereinabove for the tyrosine phosphorylation assay.
The tested compound was then added to the cells for 1 hour at a concentration of 1, 2.5, 5, 10 or 20 μg/ml. The cells were activated for IL12/23p40 production by incubation for 24 hours with 10 μg/ml peptidoglycan (PGN). Cytokine production from the supernatant was measured by ELISA. Activated cells without the tested compound were used as the control.

[6] = test system: mouse peritoneal macrophages; assay: In vitro toxicity assay; assay type: cell-based
Protocol: Thioglycollate-elicited mouse peritoneal macrophages were washed, counted and seeded (2×10^5 to 3×10^5 cells per well in 24-well plates) in triplicate wells in medium containing RPMI-1640, L-glutamine, 10% FBS and antibiotics (penicillin/streptomycin). After a recovery period of 24 hours, the tested compound (or controls) was added to the cell medium at doses of 2, 10, 20, 50, 100 or 150 μg/ml, keeping the added volume equal in all treatments by complementing the volume with solvent.
Following addition of the compounds, the cells were incubated for an additional 24 hours, after which the cells were washed, fixed with a solution of 10% methanol/10% acetic acid and stained with crystal violet (0.4% in 20% ethanol). Cell numbers were measured by determining optical density at 595 nm. Cells incubated with vehicle (PBS with 1% ethanol) were used as a control, to which cell numbers in treated samples were normalized.
Data are presented as mean±standard deviation. Statistical significance relative to vehicle-treated cells was calculated using a student's t-test, with p-values of less than 0.05 being considered as indicating statistical significance.

[7] = test system: tyrosine phosphorylation in bone marrow-derived cells; assay: Tyrosine phosphorylation assay in bone marrow-derived cells (Western blot); assay type: cell-based, mouse
Protocol: as §1

[8] = test system: ApoE KO mice; assay: In vivo atherosclerotic lesion assay, ApoE KO mice; settings: 1 mg/mouse (40 mg/kg) orally, 5 treatments every other day, sacrificed by the end of 8 weeks, aortic sinus
Protocol: (§2) In Vivo Atherosclerotic Lesion Assay:
Alternatively, 14-16-week old ApoE KO mouse were orally administered with 0.2 ml of PBS or PBS with an indicated amount of the tested compound, once a day, every other day, for 5 treatments, and sacrificed by the end of 8 weeks.
(§3) The quantification of atherosclerotic lesions was done by calculating the lesion size in the aortic sinus as previously described [Paigen et al., Quantitative assessment of atherosclerotic lesions in mice. Atherosclerosis 1987; 68:231-240] with a few modifications. Briefly, the heart and the aorta were removed from the animals, and the peripheral fat was cleaned carefully. The hearts were embedded in Optimal Cutting Temperature (OCT) gel and frozen. Aortic sinus lesion was determined from 3-8 Oil red O-stained serial sections (10 μm thick), throughout the aortic sinus (400 μm). The lesion area was calculated using a computer analyzing method (Image Pro Plus software [version 4.5.1.29], Medical Cybernetics Corporation).

[9] = test system: LDL-RD male mice; assay: In vivo atherosclerotic lesion assay, LDL-RD mice; settings: 1 mg/mouse (60 mg/kg) orally, 5 treatments every other day, western diet 5 weeks, aortic sinus
Protocol: as §2
12-16-week old LDL-RD male mice were orally administered with 0.2 ml of PBS or PBS with an indicated amount of the tested compound, once a day, every other day, for 5 treatments. The mice were challenged with western diet for 5 weeks and then sacrificed.
as §3

[10] = peritoneal macrophages, 24 hours, doses 2-150 μg/ml

| Structure (SMILES) | phosphotyrosine levels ([1]; 10 μg/ml, 10 minutes) | phosphotyrosine levels ([1]; 20 μg/ml, 10 minutes) | IL12/23 p40 mRNA expression [3] | production of IL12/23 p40 [5] | dose at which (significant) toxicity was detected [6, 10] | also measured |
| --- | --- | --- | --- | --- | --- | --- |
| CCCCCCCCCCCCCCCCOCC(COP(=O)(O)OCCN)OCCCCC(=O)O (stereo not shown) [CI-202, 1-Hexadecyl-2-(4-carboxy)butyl-glycero-3-phosphoethanolamine] | induction of tyrosine phosphorylation | reduction in phosphotyrosine levels | inhibited IL12/23 p40 mRNA expression during the whole tested time period | inhibited production of IL12/23 p40 by bone marrow-derived cells in a dose-dependent manner | – | development of MOG-induced EAE (mean clinical score) [2]: delayed disease onset and reduced clinical manifestation of EAE; decrease of peak arthritis clinical score relative to the control mice ([4]; 0.4 mg/kg by gavage daily from day 22): 42%; arthritis severity (arthritis clinical score) ([4]; 0.4 mg/kg by gavage daily from day 22, followed until day 36): significantly decreased arthritis severity throughout the study period; dose at which (significant) toxicity was detected ([6]; mouse, 24 h): above 50 μg/ml |
| CCCCCCCCCCCCCCCCOCC(COP(=O)([O-])OCC[N+](C)(C)C)OCCCCCCC(=O)O (stereo not shown) [CI-203, 1-Hexadecyl-2-(6-carboxy)hexanyl-glycero-3-phosphocholine] | – | – | – | inhibited production of IL12/23 p40 by bone marrow-derived cells in a dose-dependent manner | 100 µg/mL | phosphotyrosine levels ([7]; 1 μg/ml (1.7 μM)): no apparent effect |
| CCCCCCCCCCCCCCCCOCC(COP(=O)([O-])OCC[N+](C)(C)C)OCCCCCCC(=O)O (racemic) [racemic CI-203, 1-hexadecyl-2-(6-carboxy)hexanyl-glycero-3-phosphocholine] | – | – | – | – | – | phosphotyrosine levels ([7]; 20 μg/ml (33 μM)): caused a reduction in phosphotyrosine levels |
| CCCCCCCCCCCCCCCCOCC(COP(=O)([O-])OCC[N+](C)(C)C)OCCCCC(OC)OC (stereo not shown) [diMeAc, 1-hexadecyl-2-(5′,5′-dimethoxypentyl)-glycero-3-phosphocholine] | – | – | – | – | – | decrease of atherosclerotic lesion area as compared to the control (PBS) [8]: 23% |
| CCCCCCCCCCCCCCCCOC[C@H](COP(=O)([O-])OCC[N+](C)(C)C)OCCCCC(O)CO (stereo partly shown) [di-OH, 1-Hexadecyl-2-(5,6-dihydroxy)hexanyl-glycero-3-phosphocholine] | – | – | – | – | ≥ 20 µg/mL | decrease of atherosclerotic lesion area as compared to the control (PBS) [9]: 25% |
| CCCCCCCCCCCCCCCCOC[C@H](COP(=O)([O-])OCC[N+](C)(C)C)OCCCCC(=O)O [CI-201, 1-hexadecyl-2-(4-carboxy)butyl-sn-glycero-3-phosphocholine, reference compound] | caused an increase in phosphotyrosine levels | caused a decrease in phosphotyrosine levels; also recorded: caused a reduction in phosphotyrosine levels | inhibition by CI-202 was comparable to the inhibition by CI-201 | – | – | phosphotyrosine levels ([1]; 20 ng/ml): reduction |
